Columns and labels:
Details in all cases: stereoisomer not certain
[1] = RP, Merck Supelco Ascentis Express C18, 100 × 2.1 mm, 2 µm, 39 °C, 0.3 mL/min, estimated dead time 0.73 min; A: water + 0.1% formic acid, pH 3; B: acetonitrile + 0.1% formic acid, pH 3; gradient (min/%B) 0/5 2/5 17/99.9 20/99.9
[2] = RP, Merck Supelco Ascentis Express C18, 100 × 2.1 mm, 2 µm, 40 °C, 0.2 mL/min, estimated dead time 1.1 min; A: water + 0.1% formic acid, pH 3; B: acetonitrile + 0.1% formic acid, pH 3; gradient (min/%B) 0/5 2/5 17/99.9 20/99.9
[3] = RP, Merck Supelco Ascentis Express C18, 100 × 2.1 mm, 2 µm, 40 °C, 0.35 mL/min, estimated dead time 0.63 min; A: water + 0.1% formic acid, pH 3; B: acetonitrile + 0.1% formic acid, pH 3; gradient (min/%B) 0/5 2/5 17/99.9 20/99.9
[4] = RP, Merck Supelco Ascentis Express C18, 100 × 2.1 mm, 2 µm, 40 °C, 0.4 mL/min, estimated dead time 0.55 min; A: water + 0.1% formic acid, pH 3; B: acetonitrile + 0.1% formic acid, pH 3; gradient (min/%B) 0/5 2/5 17/99.9 20/99.9
[5] = RP, Merck Supelco Ascentis Express C18, 100 × 2.1 mm, 2 µm, 40 °C, 0.25 mL/min, estimated dead time 0.88 min; A: water + 0.1% formic acid, pH 3; B: acetonitrile + 0.1% formic acid, pH 3; gradient (min/%B) 0/5 2/5 17/99.9 20/99.9
[6] = RP, Merck Supelco Ascentis Express C18, 100 × 2.1 mm, 2 µm, 40 °C, 0.4 mL/min, estimated dead time 0.55 min; A: water + 0.1% formic acid, pH 3; B: acetonitrile + 0.1% formic acid, pH 3; gradient (min/%B) 0/5 2/5 17/99.9 20/99.9; remark: listed apart in the source
[7] = RP, Merck Supelco Ascentis Express C18, 100 × 2.1 mm, 2 µm, 40 °C, 0.2 mL/min, estimated dead time 1.1 min; A: water + 0.1% formic acid, pH 3; B: acetonitrile + 0.1% formic acid, pH 3; gradient (min/%B) 0/5 2/5 17/99.9 20/99.9; remark: listed apart in the source

| LC retention time [1] [min] | LC retention time [2] [min] | LC retention time [3] [min] | LC retention time [4] [min] | LC retention time [5] [min] | LC retention time [6] [min] | LC retention time [7] [min] | SMILES |
| --- | --- | --- | --- | --- | --- | --- | --- |
| 9.71 | 10.8 | 9.5 | 9.29 | 10.2 | 9.25 | 10.7 | CCCCCCCCCCCC(=O)OC(CC(=O)[O-])C[N+](C)(C)C (stereo not drawn) [LAUROYLCARNITINE] |
| 16.5 | 17.9 | 16.1 | 15.7 | 17.1 | 15.7 | 17.9 | CCCCCCCCCCCCCCCC(=O)O [PALMITATE] |
| 3.42 | 4.53 | 2.94 | 2.59 | 3.91 | 2.54 | 4.53 | O=C(O)c1ccc(O)cc1 [4-HYDROXYBENZOATE] |
| 9.57 | 10.4 | 9.28 | 9.09 | 9.94 | 9.05 | 10.5 | CC(CCC(=O)NCC(=O)O)C1CCC2C3C(O)CC4CC(O)CCC4(C)C3CCC12C (stereo not drawn) [GLYCOCHENODEOXYCHOLATE] |
| 9.4 | 10.3 | 9.14 | 8.94 | 9.77 | 8.9 | 10.3 | CC(CCC(=O)O)C1CCC2C3C(O)CC4CC(O)CCC4(C)C3CC(O)C12C (stereo not drawn) [CHOLATE] |
| 1.31 | 2.01 | 1.16 | 1.01 | 1.58 | 0.993 | 2.01 | Cn1cnc2c(ncn2C2OC(CO)C(O)C2O)c1=N (stereo not drawn) [1-METHYLADENOSINE] |
| 1.01 | 1.52 | 0.853 | 0.737 | 1.19 | 0.74 | 1.51 | CC(=O)NC(C)C(=O)O (stereo not drawn) [N-ACETYLALANINE] |
| 1.78 | 2.72 | 1.56 | 1.35 | 2.14 | 1.35 | 2.7 | N[C@@H](Cc1ccc(O)c([N+](=O)[O-])c1)C(=O)O [3-NITRO-L-TYROSINE] |
| 0.883 | 1.36 | 0.757 | 0.663 | 1.09 | 0.693 | 1.37 | Nc1nc2nc[nH]c2c(=O)[nH]1 [GUANINE] |
| 15.9 | 17.3 | 15.5 | 15.1 | 16.5 | 15.1 | 17.3 | CCCCCCCCC=CCCCCCCCC(=O)OCC(O)CO (stereo not drawn) [OLEOYL-GLYCEROL] |
| 1.07 | 1.63 | 0.923 | 0.8 | 1.29 | 0.783 | 1.63 | CC(=O)NCCCC(=O)O [4-ACETAMIDOBUTANOATE] |
| 4.5 | 5.42 | 4.18 | 3.96 | 4.9 | 3.93 | 5.43 | COc1cc(CC(=O)O)ccc1O [HOMOVANILLATE] |
| 4.28 | 5.31 | 3.9 | 3.62 | 4.72 | 3.59 | 5.3 | O=C(O)c1ccccc1[O-] [SALICYLATE] |
| 3.94 | 4.85 | 3.61 | 3.37 | 4.33 | 3.33 | 4.85 | CSc1ncnc2nc[nH]c12 [THIOPURINE S-METHYLETHER] |
| 9.28 | 10.4 | 8.9 | 8.61 | 9.77 | 8.56 | 10.4 | O=C(O)c1ccc2ccccc2c1O [1-HYDROXY-2-NAPHTHOATE] |
| 2.6 | 3.84 | 2.21 | 1.95 | 3.09 | 1.91 | 3.82 | CC(CC(=O)O)CC(=O)O [METHYGLUTARATE] |
| 4.5 | 5.42 | 4.18 | 3.96 | 4.9 | 3.93 | 5.43 | O=C(O)C(O)Cc1ccc(O)cc1 (stereo not drawn) [HYDROXYPHENYLLACTATE] |
| 1.79 | 2.71 | 1.56 | 1.38 | 2.15 | 1.36 | 2.7 | CC(C)(CO)C(O)C(=O)NCCC(=O)O (stereo not drawn) [PANTOTHENATE] |
| 5.94 | 7 | 5.5 | 5.17 | 6.34 | 5.14 | 7.01 | CC(=O)Oc1cccc(O)c1 [RESORCINOL MONOACETATE] |
